The subject of test [1] is porcine kidney-derived LLC-PK1 cells. As to the kind of experiment: Protective effect against cell injury of porcine kidney-derived LLC-PK1 cells (1), oxidized LDL-induced LDH leakage. The test is classed as cell-based. As to conditions: oxidized LDL 100 μg/ml, 6 hours; for % cytoprotection 1): test compounds added 16 hours before addition of oxidized LDL; for % cytoprotection 2): test compounds added immediately before addition of oxidized LDL. On the procedure: For the purpose of evaluating in vitro cytoprotective effect of the compounds of the present invention, protective effect against cell injury of porcine kidney-derived LLC-PK1 cells (ATCC-CRL-13921) induced by oxidized low-density lipoprotein (oxidized LDL) was examined.
(§1) The oxidized LDL was prepared by placing 1 mg/ml of rabbit LDL in PBS (−) in the presence of 10 μM CuSO4 at 37° C. for 24 hours. Cell cultures were prepared by inoculating 1.25×10^4 cells/250 μl/well on a 48-well plate using M199 medium containing 3% FBS. Test compounds were dissolved or suspended in ethanol and added at a ratio of 1.25 μl/well 16 hours before or immediately before addition of the oxidized LDL to a concentration of 0.1, 1 or 10 μM in each well. The oxidized LDL was diluted twice with physiological saline and then added to cells at 62.5 μl/well to a concentration of 100 μg/ml and the cells were incubated for 6 hours after addition of the oxidized LDL. After the incubation, 162.5 μl of the culture medium was collected from each of the wells and measured for the lactate dehydrogenase (LDH) activity (Lactate Dehydrogenase (LD-L): SIGNA DIAGNOSTICS) which has leaked into the culture medium.
(§2) The cytoprotective effect was expressed as a % cytoprotection where the effect in wells containing the oxidized LDL but without any test compound is 0% and the effect in wells containing physiological saline in place of the oxidized LDL is 100%.
A general note: LDH leaks from cells whose membrane has failed.

The next test concerns cultured mesangial cells. As to the kind of experiment: Protective effect against cell injury of cultured mesangial cells, oxidized LDL-induced LDH leakage. In kind it is cell-based, rats. On the procedure:
For the purpose of evaluating in vitro cytoprotective effect of the compounds of the present invention, protective effect against cell injury of cultured mesangial cells induced by oxidized low-density lipoprotein (LDL) was examined. The cells used were subcultures after 4 to 6 passages of the primary cultures of mesangial cells prepared from kidney of 4-week-old SD-strain male rats (Nippon Charles River Corp.).
The oxidized LDL was prepared by placing 1 mg/ml of rabbit LDL in PBS (−) in the presence of 10 μM CuSO4 at 37° C. for 24 hours. Cell cultures were prepared by inoculating 2.5×10^4 cells/250 μl/well on a 48-well plate using RPMI1640 medium containing 20% FBS. Immediately before addition of test compounds, the medium was replaced with RPMI1640 free from FBS. Test compounds were dissolved or suspended in ethanol and added at 1.25 μl/well 16 hours before or immediately before addition of the oxidized LDL to a concentration of 1, 3 or 10 μM in each well. Unlike Test example 1, the oxidized LDL was not diluted with physiological saline and added to cells at 25 μl/well to a concentration of 91 μg/ml and the cells were incubated for 8 hours after addition of the oxidized LDL. After the incubation, 150 μl of the culture medium was collected from each of the wells and measured for the lactate dehydrogenase activity (Lactate Dehydrogenase (LD-L): SIGMA DIAGNOSTICS) which has leaked in the culture medium.
as §2

The subject of test [2] is porcine kidney-derived LLC-PK1 cells. As to the kind of experiment: Protective effect against cell injury of porcine kidney-derived LLC-PK1 cells (2), oxidized LDL-induced LDH leakage. The test is classed as cell-based. The method, then:
as §1, §2
For the purpose of evaluating in vitro cytoprotective effect of the compounds of the present invention, protective effect against cell injury of porcine kidney-derived LLC-PK1 cells (ATCC-CRL-13921) induced by oxidized low-density lipoprotein (oxidized LDL) was examined in the same manner as in Test example 1.
Preparation of oxidized LDL and conditions for cell culture and addition of test compounds were the same as those in Test example 1, except that the oxidized LDL was not diluted with physiological saline and added to cells at 25 μl/well to a concentration of 91 μg/ml and the cells were incubated for 6 hours after addition of oxidized LDL. After the incubation, 150 μl of the culture medium was collected from each of the wells and measured for the lactate dehydrogenase (LDH) activity (Lactate Dehydrogenase (LD-L): SIGMA DIAGNOSTICS) which has leaked in the culture medium.

[3] abbreviates: Rattus norvegicus, Mesangial cell; 1 μM; test compounds added 16 hours before addition of oxidized LDL; oxidized LDL 91 μg/ml, 8 hours; read-out: % cytoprotection 1).
The mark [4] stands for this setting: Rattus norvegicus, Mesangial cell; 1 μM; test compounds added immediately before addition of oxidized LDL; oxidized LDL 91 μg/ml, 8 hours; read-out: % cytoprotection 2).
Where [5] appears, read: Rattus norvegicus, Mesangial cell; 3 μM; test compounds added 16 hours before addition of oxidized LDL; oxidized LDL 91 μg/ml, 8 hours; read-out: % cytoprotection 1).
The mark [6] stands for this setting: Rattus norvegicus, Mesangial cell; 3 μM; test compounds added immediately before addition of oxidized LDL; oxidized LDL 91 μg/ml, 8 hours; read-out: % cytoprotection 2).
[7] abbreviates: Sus scrofa, LLC-PK1; 0.1 μM; test compounds added 16 hours before addition of oxidized LDL; oxidized LDL 91 μg/ml, 6 hours; read-out: % cytoprotection 1).
[8] abbreviates: Sus scrofa, LLC-PK1; 0.1 μM; test compounds added immediately before addition of oxidized LDL; oxidized LDL 91 μg/ml, 6 hours; read-out: % cytoprotection 2).
Where [9] appears, read: Sus scrofa, LLC-PK1; 1 μM; test compounds added 16 hours before addition of oxidized LDL; oxidized LDL 91 μg/ml, 6 hours; read-out: % cytoprotection 1).
Setting [10] is: Sus scrofa, LLC-PK1; 1 μM; test compounds added immediately before addition of oxidized LDL; oxidized LDL 91 μg/ml, 6 hours; read-out: % cytoprotection 2).
[11] abbreviates: Sus scrofa, LLC-PK1; 10 μM; test compounds added 16 hours before addition of oxidized LDL; oxidized LDL 91 μg/ml, 6 hours; read-out: % cytoprotection 1).
Where [12] appears, read: Sus scrofa, LLC-PK1; 10 μM; test compounds added immediately before addition of oxidized LDL; oxidized LDL 91 μg/ml, 6 hours; read-out: % cytoprotection 2).

Like-named read-outs stand apart in the source and are kept apart here.

As for `CC(C)(C)c1cc(O)c(C(C)(C)C)c2c1OCC2` [Example 1, 4,7-Di-t-butyl-5-hydroxy-2,3-dihydrobenzofuran], the results for the “% cytoprotection 1)” value in test [1] (0.1 μM), in test [1] (1 μM) and in test [1] (10 μM) were 92.7%, 104.1% and 100.5%, respectively. Also, the results for the “% cytoprotection 2)” value in test [1] (0.1 μM), in test [1] (1 μM) and in test [1] (10 μM) were 17.5%, 103.9% and 102.3%, respectively. Also, the figures for the inhibition at 1 µM in the test on cultured mesangial cells (setting [3]) and in the test with cultured mesangial cells (setting [4]) were 24.2 ± 9.3% and 40.3 ± 3.2%, respectively. Further, the figures for the inhibition at 3 µM in the test with cultured mesangial cells (setting [5]) and in the test on cultured mesangial cells (setting [6]) were 78.2 ± 13.4% and 69.7 ± 13.3%, respectively.
Turning to `CC1Cc2c(c(C(C)(C)C)cc(O)c2C(C)(C)C)O1` (stereo not drawn) [Example 2, 4,7-Di-t-butyl-5-hydroxy-2-methyl-2,3-dihydrobenzofuran], the “% cytoprotection 1)” value is 24.4% in test [1] (0.1 μM), 101.2% in test [1] (1 μM) and 101.0% in test [1] (10 μM). The “% cytoprotection 2)” value in test [1] (0.1 μM) was 27.1%; in test [1] (1 μM) it was 101.5%; in test [1] (10 μM), 99.9%. Besides, the inhibition at 1 µM with cultured mesangial cells (setting [3]) was 35.6 ± 7.5%; with cultured mesangial cells (setting [4]), 40.6 ± 8.2%. Besides, the inhibition at 3 µM in the test on cultured mesangial cells (setting [5]) is 60.5 ± 6.2%; in the test with cultured mesangial cells (setting [6]) it was 53.1 ± 5.7%.
Take `CC1(C)Cc2cc(O)c(C(C)(C)C)cc2O1` [Example 5, 6-t-Butyl-5-hydroxy-2,2-dimethyl-2,3-dihydrobenzofuran]: the “% cytoprotection 1)” value in test [1] (0.1 μM) amounted to 77.6%; in test [1] (1 μM), 103.4%; in test [1] (10 μM), 100.6%. Also, the “% cytoprotection 2)” value came to 18.2% in test [1] (0.1 μM), 100.8% in test [1] (1 μM) and 101.7% in test [1] (10 μM). In addition, the inhibition at 1 µM with cultured mesangial cells (setting [3]) was 34.2 ± 4.5%; in the test on cultured mesangial cells (setting [4]) it was 11.3 ± 2.4%. Also, the figures for the inhibition at 3 µM in the test on cultured mesangial cells (setting [5]) and in the test with cultured mesangial cells (setting [6]) were 42.3 ± 4.7% and 28.9 ± 2%, respectively.
As to `Cc1c(O)c(C(C)(C)C)cc2c1CC1(CCCCCC1)O2` [Example 14-(1), 6-t-Butyl-5-hydroxy-4-methyl-2,3-dihydrobenzofuran-2-spiro-1′-cycloheptane], the inhibition at 0.1 µM was -6.5% in test [2] (setting [7]) and -9.2% in test [2] (setting [8]). In addition, the inhibition at 1 µM in test [2] (setting [9]) is 103%; in test [2] (setting [10]) it was 101%; in the test with cultured mesangial cells (setting [3]) it was 19.7 ± 7.7%; in the test with cultured mesangial cells (setting [4]) it was 34.4 ± 1.5%. Also, the values for the inhibition at 10 µM in test [2] (setting [11]) and in test [2] (setting [12]) were 104% and 103%, respectively. Further, the inhibition at 3 µM worked out at 59.3 ± 2.1% in the test with cultured mesangial cells (setting [5]) and 43.2 ± 2.8% in the test on cultured mesangial cells (setting [6]).
On to `CCc1c(O)c(C(C)(C)C)cc2c1CC1(CCCCCC1)O2` [Example 14-(2), 6-t-Butyl-4-ethyl-5-hydroxy-2,3-dihydrobenzofuran-2-spiro-1′-cycloheptane], for which the results for the inhibition at 0.1 µM in test [2] (setting [7]) and in test [2] (setting [8]) were -14.3% and -13.9%, respectively. The inhibition at 1 µM in test [2] (setting [9]) was determined as 103%; in test [2] (setting [10]) it was 99.4%; in the test on cultured mesangial cells (setting [3]), 6.6 ± 8.4%; with cultured mesangial cells (setting [4]), 23.1 ± 1.2%. Further, the inhibition at 10 µM in test [2] (setting [11]) was 104%; in test [2] (setting [12]) it was 105%. In addition, the figures for the inhibition at 3 µM in the test on cultured mesangial cells (setting [5]) and in the test with cultured mesangial cells (setting [6]) were 52.7 ± 14.3% and 45.6 ± 1.8%, respectively.
For `CC1Cc2cc(O)c(C(C)(C)C)cc2O1` (stereo not drawn) [Example 16, 6-t-Butyl-5-hydroxy-2-methyl-2,3-dihydrobenzofuran], the inhibition at 0.1 µM in test [2] (setting [7]) was determined as 12.7%; in test [2] (setting [8]), 7.6%. In addition, the inhibition at 1 µM turned out to be 99.7% in test [2] (setting [9]), 90.8% in test [2] (setting [10]), 50.6 ± 5.9% with cultured mesangial cells (setting [3]) and 18.7 ± 1.3% in the test with cultured mesangial cells (setting [4]). Further, the inhibition at 10 µM in test [2] (setting [11]) and in test [2] (setting [12]) was 103% each time. In addition, the inhibition at 3 µM with cultured mesangial cells (setting [5]) was found to be 45.3 ± 9.4%; in the test on cultured mesangial cells (setting [6]), 28.3 ± 6.2%.

Source of the values: patent US6403639B1, “2,3-dihydrobenzofuran derivatives” (Chugai Seiyaku Kabushiki Kaisha, priority 1997, dated 2002).
